Consider 19 molecules from patent US20250320224A1 (DOMAIN THERAPEUTICS, priority 2022, published 2025).

This assay deals with T1, human PAR-2 (hPAR-2) receptor (Homo sapiens, UniProt P55085).
T1 construct: expressed in HEK-293 cells in an endogenous manner; endogenous in cells; host or cells: HEK-293
T1 sequence (P55085 26-397): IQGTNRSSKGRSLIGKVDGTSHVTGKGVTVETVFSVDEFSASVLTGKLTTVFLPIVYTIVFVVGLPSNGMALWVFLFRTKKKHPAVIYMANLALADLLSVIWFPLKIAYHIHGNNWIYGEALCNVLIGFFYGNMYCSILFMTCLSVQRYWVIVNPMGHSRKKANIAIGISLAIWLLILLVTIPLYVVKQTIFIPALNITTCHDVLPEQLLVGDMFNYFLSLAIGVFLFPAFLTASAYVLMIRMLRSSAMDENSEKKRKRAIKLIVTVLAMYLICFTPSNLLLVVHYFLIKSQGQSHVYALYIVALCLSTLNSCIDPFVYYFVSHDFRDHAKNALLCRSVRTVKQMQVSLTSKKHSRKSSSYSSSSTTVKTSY
The assay can be described thus: In vitro human PAR-2 functional antagonist activity using calcium assays. It is filed as cell-based. The conditions noted are these: hPAR-2 endogenously expressed in HEK-293 cells; stimulated by 2-Furoyl-LIGRLO-NH2 peptide; Fluo4AM intracellular calcium, FLIPR Tetra. On the procedure: Example 283: In Vitro Human PAR-2 Functional Antagonist Activity Using Calcium Assays
Examples of the present invention were tested successively for their agonist and antagonist activities on human PAR-2 (hPAR-2) receptor expressed in HEK-293 cells in an endogenous manner. Compounds exert agonist activity if, by themselves in absence of the 2-Furoyl-LIGRLO-NH2 peptide (selective hPAR-2 agonist), they activate PAR-2; they exert antagonist activity if they decrease the action of the 2-Furoyl-LIGRLO-NH2 peptide on the receptor. The assay used to determine compound activity is based on calcium measurement.
Cell Culture: HEK-293 cells were maintained in Dulbecco's Modified Eagle's Medium supplemented with 10% Foetal Calf Serum, 1% Penicillin/Streptomycin at 37° C./5% CO2. Flasks for tests (F75) are seeded with 6e+06 cells 24 h before the experiment at 37° C./5% CO2.
Calcium assay: Receptor activity was detected by changes in intracellular calcium measured using the fluorescent Ca^2+ sensitive dye, Fluo4AM (Molecular Probes).
The day of the assay, medium was replaced by assay buffer (HBSS 1× (Gibco 14175-053), Hepes 20 mM, MgSO4-7H2O 1 mM, Na2CO3 3.3 mM, CaCl2—2H2O 2.6 mM, 0.5% bovine serum albumin (BSA), Probenecid 2.5 mM, 0.1 mg/mL Pluronic Acid) and complemented with 1 μM Fluo4AM and cells were incubated during 1:30 h at 37° C.
Cells were then detached, resuspended in assay buffer and seeded in 384 wells, transparent-flat bottom black walled plates (2e+04 cells per well). Plates were incubated at +22° C. for 20 min. Compounds stock solutions were prepared in 100% DMSO and dilutions in test buffer were carried out in polypropylene plates with a digital dispenser (D300e, Tecan). Compounds were added to the cells and intracellular Ca^2+ measurements were collected at the same time on FLIPR Tetra® (Molecular Devices) with specific filters (Exc: 470-495 nm/Em: 515-575 nm).
Agonist and antagonist activities of compounds were consecutively evaluated on the same cell plate. Agonist activity was first measured after 10 min incubation with the compound alone. Then, cells were stimulated by an […] of the 2-Furoyl-LIGRLO-NH2 peptide and fluorescence was recorded for an additional 5 min. EC50 of the 2-Furoyl-LIGRLO-NH2 peptide was the concentration giving 80% of the maximal 2-Furoyl-LIGRLO-NH2 response. Agonist activities are evaluated in comparison to basal signals evoked by assay buffer or maximal 2-Furoyl-LIGRLO-NH2 response. […] Antagonist activities are evaluated in comparison to basal signals evoked by assay buffer or EC50 of 2-Furoyl-LIGRLO-NH2 alone.
In general terms: Calcium flux is commonly read through the fluorescence of an indicator in the cells.

Where only a bound is given, the exact number is not on record here.

One may read the IC50 as the concentration at which inhibition is half-maximal. As for `Cc1cc(N2CCN(C(=O)c3ccc4c(n3)C(C)(C)CN4c3cccc(F)c3)C(C)(C)C2)nc(C)c1C(=O)O` [Example 17, 6-(4-(1-(3-fluorophenyl)-3,3-dimethyl-2,3-dihydro-1H-pyrrolo[3,2-b]pyridine-5-carbonyl)-3,3-dimethylpiperazin-1-yl)-2,4-dimethylnicotinic acid], the half-maximal inhibitory concentration (IC50) was less than 500 nM.

For the molecule `CO[C@@H]1CN(C(=O)c2ccc3c(n2)C(C)(C)CN3c2ccc(Cl)c(F)c2)CC[C@@H]1CC(=O)O` [Example 98, 2-((3S,4R)-1-(1-(4-chloro-3-fluorophenyl)-3,3-dimethyl-2,3-dihydro-1H-pyrrolo[3,2-b]pyridine-5-carbonyl)-3-methoxypiperidin-4-yl)acetic acid], the IC50 lay in the range of 500 to 10000 nM.

As for `CC1(C)CN(c2ccc(Cl)c(F)c2)c2ccc(C(=O)N3CCN(c4nc(C(=O)N5CCC(O)CC5)cs4)CC3(C)C)nc21` [Example 81, (1-(4-chloro-3-fluorophenyl)-3,3-dimethyl-2,3-dihydro-1H-pyrrolo[3,2-b]pyridin-5-yl)(4-(4-(4-hydroxypiperidine-1-carbonyl)thiazol-2-yl)-2,2-dimethylpiperazin-1-yl)methanone], the concentration for half-maximal inhibition (IC50) was less than 500 nM.

`CC1(C)CN(c2ccc(Cl)c(F)c2)c2ccc(C(=O)N3C[C@@H]4[C@@H](CC(=O)O)[C@@H]4C3)nc21` [Example 31, 2-((1R,5S,6S)-3-(1-(4-chloro-3-fluorophenyl)-3,3-dimethyl-2,3-dihydro-1H-pyrrolo[3,2-b]pyridine-5-carbonyl)-3-azabicyclo[3.1.0]hexan-6-yl)acetic acid]: the IC50 was less than 500 nM.

Take `CC1(C)CN(c2ccc(CC(=O)O)cn2)CCN1C(=O)c1cc2n(n1)C(C)(C)CN(c1ccc(Cl)c(F)c1)C2` [Example 195, 2-(6-(4-(5-(4-chloro-3-fluorophenyl)-7,7-dimethyl-4,5,6,7-tetrahydropyrazolo[1,5-a]pyrazine-2-carbonyl)-3,3-dimethylpiperazin-1-yl)pyridin-3-yl)acetic acid]: the 50% inhibitory concentration (IC50) was 500 to 10000 nM.

For the molecule `CC1(C)CN(c2cc(F)c(F)c(F)c2)c2ncc(C(=O)N3CCN(c4ccc(CC(=O)O)cn4)CC3(C)C)nc21` [Example 217, 2-(6-(4-(7,7-dimethyl-5-(3,4,5-trifluorophenyl)-6,7-dihydro-5H-pyrrolo[2,3-b]pyrazine-2-carbonyl)-3,3-dimethylpiperazin-1-yl)pyridin-3-yl)acetic acid], the IC50 was less than 500 nM.

With `CC1(C)CN(c2ccc(C(=O)N3CCN(c4cncc(C(=O)O)c4)CC3(C)C)c(F)c2)c2ccc(C(=O)N3CCN(c4cncc(C(=O)O)c4)CC3(C)C)nc21` [Example 152, 5-(4-(4-(5-(4-(5-carboxypyridin-3-yl)-2,2-dimethylpiperazine-1-carbonyl)-3,3-dimethyl-2,3-dihydro-1H-pyrrolo[3,2-b]pyridin-1-yl)-2-fluorobenzoyl)-3,3-dimethylpiperazin-1-yl)nicotinic acid], the IC50 is greater than 10000 nM.

Take `Cc1cc(N2CCN(C(=O)c3ccc4c(n3)C3(CN4c4ccc(Cl)c(F)c4)CC(F)(F)C3)C(C)(C)C2)nc(C)c1C(=O)O` [Example 89, 6-(4-(1′-(4-chloro-3-fluorophenyl)-3,3-difluoro-1′,2′-dihydrospiro[cyclobutane-1,3′-pyrrolo[3,2-b]pyridine]-5′-carbonyl)-3,3-dimethylpiperazin-1-yl)-2,4-dimethylnicotinic acid]: the half-inhibitory concentration (IC50) was less than 500 nM.

Regarding `Cc1cc(N2CCN(C(=O)c3cnc4c(n3)C(C)(C)CN4c3ccc(Cl)c(F)c3)C(C)(C)C2)nc(C)c1C(=O)O` [Example 100, 6-(4-(5-(4-chloro-3-fluorophenyl)-7,7-dimethyl-6,7-dihydro-5H-pyrrolo[2,3-b]pyrazine-2-carbonyl)-3,3-dimethylpiperazin-1-yl)-2,4-dimethylnicotinic acid], the IC50 was less than 500 nM.

As to `CC1(C)C(=O)NCCN1C(=O)c1ccc2c(n1)C1(CCOCC1)C(=O)N2c1ccc(Cl)c(F)c1` [Example 1, 1′-(4-chloro-3-fluorophenyl)-5′-(2,2-dimethyl-3-oxopiperazine-1-carbonyl)-2,3,5,6-tetrahydrospiro[pyran-4,3′-pyrrolo[3,2-b]pyridin]-2′(1′H)-one], the concentration for half-maximal inhibition (IC50) lay within 500 to 10000 nM.

As to `Cc1cc(N2CCN(C(=O)c3ccc4c(n3)C(C)(C)CN4C3CCC(C(N)=O)CC3)C(C)(C)C2)nc(C)c1C(=O)O` (stereo not shown) [Example 162, 6-(4-(1-(4-carbamoylcyclohexyl)-3,3-dimethyl-2,3-dihydro-1H-pyrrolo[3,2-b]pyridine-5-carbonyl)-3,3-dimethylpiperazin-1-yl)-2,4-dimethylnicotinic acid], the IC50 is 500 to 10000 nM.

Regarding `Cc1cc(N2CCN(C(=O)c3ccc4c(n3)C3(CCCC3)CN4c3ccc(Cl)c(F)c3)C(C)(C)C2)nc(C)c1C(=O)O` [Example 8, 6-(4-(1′-(4-chloro-3-fluorophenyl)-1′,2′-dihydrospiro[cyclopentane-1,3′-pyrrolo[3,2-b]pyridine]-5′-carbonyl)-3,3-dimethylpiperazin-1-yl)-2,4-dimethylnicotinic acid], the IC50 is less than 500 nM.

`COCC1CC2(C1)CN(c1ccc(Cl)c(F)c1)c1ccc(C(=O)N3CCN(c4cc(C)c(C(=O)O)c(C)n4)CC3(C)C)nc12` (stereo not shown) [Example 225, 6-(4-(1′-(4-chloro-3-fluorophenyl)-3-(methoxymethyl)-1′,2′-dihydrospiro[cyclobutane-1,3′-pyrrolo[3,2-b]pyridine]-5′-carbonyl)-3,3-dimethylpiperazin-1-yl)-2,4-dimethylnicotinic acid]: the 50% inhibitory concentration (IC50) is less than 500 nM.

Turning to `CC1(C)C(=O)NCCN1C(=O)c1ccc2c(n1)C1(CCOC1)CN2c1ccc(Cl)c(F)c1` (stereo not shown) [Example 58, 4-(1′-(4-chloro-3-fluorophenyl)-1′,2′,4,5-tetrahydro-2H-spiro[furan-3,3′-pyrrolo[3,2-b]pyridine]-5′-carbonyl)-3,3-dimethylpiperazin-2-one], the IC50 was less than 500 nM.

In the case of `CC1(C)CN(c2ccc(F)c(F)c2)c2ccc(C(=O)N3CCNC(=O)C3(C)C)nc21` [Example 12, 4-(1-(3,4-difluorophenyl)-3,3-dimethyl-2,3-dihydro-1H-pyrrolo[3,2-b]pyridine-5-carbonyl)-3,3-dimethylpiperazin-2-one], the half-inhibitory concentration (IC50) was less than 500 nM.

`CC1(C)CN(c2ccc(Cl)c(F)c2)c2ccc(C(=O)N3[C@@H]4CC[C@H]3CC(CC(=O)O)C4)nc21` (mixture of isomers) [Example 130, 2-((1R,5S)-8-(1-(4-chloro-3-fluorophenyl)-3,3-dimethyl-2,3-dihydro-1H-pyrrolo[3,2-b]pyridine-5-carbonyl)-8-azabicyclo[3.2.1]octan-3-yl)acetic acid]: the concentration for half-maximal inhibition (IC50) lay in the range of 500 to 10000 nM.

As to `CC1(C)CC2(CN(c3ccc(F)c(F)c3)c3ncc(C(=O)N4CCN(c5ccc(CC(=O)O)cn5)CC4(C)C)nc32)C1` [Example 245, 2-(6-(4-(5′-(3,4-difluorophenyl)-3,3-dimethyl-5′,6′-dihydrospiro[cyclobutane-1,7′-pyrrolo[2,3-b]pyrazine]-2′-carbonyl)-3,3-dimethylpiperazin-1-yl)pyridin-3-yl)acetic acid], the concentration for half-maximal inhibition (IC50) is less than 500 nM.

On to `Cc1cc(N2CCN(C(=O)c3ccc4c(n3)C3(CCCC3)CN4c3ccc(F)c(F)c3)C(C)(C)C2)nc(C)c1C(=O)O` [Example 113, 6-(4-(1′-(3,4-difluorophenyl)-1′,2′-dihydrospiro[cyclopentane-1,3′-pyrrolo[3,2-b]pyridine]-5′-carbonyl)-3,3-dimethylpiperazin-1-yl)-2,4-dimethylnicotinic acid], for which the IC50 was less than 500 nM.

With `Cc1ccc(N2CC(C)(C)c3nc(C(=O)N4CCN(c5cc(C)c(C(=O)O)c(C)n5)CC4(C)C)cnc32)cc1Cl` [Example 189, 6-(4-(5-(3-chloro-4-methylphenyl)-7,7-dimethyl-6,7-dihydro-5H-pyrrolo[2,3-b]pyrazine-2-carbonyl)-3,3-dimethylpiperazin-1-yl)-2,4-dimethylnicotinic acid], the concentration for half-maximal inhibition (IC50) is less than 500 nM.
